# From PubChem BioAssay (NCI)
# Values joined by “and” are separate entries in the source; they are usually repeats but may differ in a detail not shown here. Equal values may be shown once.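 Five concentrations, 48 hours, 96-well plates. At the GI50, growth is halved. TGI is the concentration that stops growth completely.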
# How the values were obtained:
# Experiment in all cases: NCI-60 cell line screen, 48 h
# [1] = tested on: CAKI-1 renal
# [2] = tested on: COLO 205 colon
# [3] = tested on: DU-145 prostate
# [4] = tested on: HOP-62 NSCLC
# [5] = tested on: KM12 colon
# [6] = tested on: NCI-H226 lung
# [7] = tested on: NCI-H460 lung
# [8] = tested on: OVCAR-4 ovarian
# [9] = tested on: T-47D breast
# [10] = tested on: UO-31 renal
Structure (SMILES),GI50 [1],TGI [1],GI50 [2] [µM],TGI [2] [µM],GI50 [3],TGI [3],GI50 [4],TGI [4] [µM],GI50 [5],TGI [5] [µM],GI50 [6] [µM],TGI [6],GI50 [7] [µM],TGI [7] [µM],GI50 [8] [µM],TGI [8] [µM],GI50 [9] [µM],TGI [9],GI50 [10],TGI [10] [µM]
COc1ccc(CN2CCc3c(Cl)nc(N)nc3C2=O)c(OC)c1,43.6 µM,> 100 µM,16.3,30.6,18.2 µM,40.3 µM,25.7 µM,63.9,14.4 µM,28.4,18.3,41.7 µM,18.6,42.6,12.6,25.6,11,39.8 µM,14 µM,43.8
O=c1c(Cl)nsnc1Cl,,37.3 µM,,3.87,,31.5 µM,,34.5,,> 57.8,,53.2 µM,,> 73.1,,49.4,,> 31.6 µM,,74.5
COc1cc([C@@H]2c3cc4c(cc3[C@H](OC3OC5COC(c6ccccc6)OC5C(O)C3O)[C@H]3COC(=O)[C@H]23)OCO4)cc(OC)c1OC (stereo partly drawn),0.378 µM,22.2 µM,0.28,0.935,0.324 µM,2.04 µM,0.456 µM,5.32,0.326 µM,1.55,4.58,37.6 µM,0.282,2.92,0.663,11.8,1.73,5.87 µM,0.366 µM,3.85
[O-][n+]1onc2c3nn(-c4ccccc4)nc3ccc21,,> 100 µM,,> 100,,57.8 µM,,> 100,,48.5,,> 100 µM,,> 100,,> 100,,32.4 µM,,> 100
Nc1nc2nc3c(nc2c(=O)[nH]1)CN(c1ccc(C(=O)O)cc1)C3=O,,> 100 µM,,> 100,,> 100 µM,,83.7,,> 100,,> 100 µM,,> 100,,> 100,,> 100 µM,,> 100
CC[C@]1(O)C[C@@H]2CN(Cc3c([nH]c4ccccc34)[C@@](C(=O)OC)(c3cc4c(cc3OC)N(C)[C@H]3[C@@](O)(C(=O)OC)[C@H](OC(C)=O)[C@]5(CC)[C@@H]6C[C@@H]6CN6CC[C@]43[C@@H]65)C2)C1,> 4.38 µM,> 4.38 µM,0.0298,0.252,0.0433 µM,> 4.38 µM,0.153 µM,> 4.38,0.0408 µM,> 4.38,> 1.44,> 4.38 µM,0.109,> 4.38,0.666,> 4.38,0.0562,> 4.38 µM,> 3.59 µM,> 4.38
CC(C)(O)Cn1c(=O)c(Oc2ccc(F)cc2F)cc2cnc(NC3CCOCC3)nc21,> 25 µM,> 25 µM,> 25,> 25,> 25 µM,> 25 µM,> 25 µM,> 25,> 25 µM,> 25,> 25,> 25 µM,> 25,> 25,> 25,> 25,> 25,> 25 µM,> 25 µM,> 25
Cc1cc(Cl)n2c(nc3ccccc32)c1C#N,0.282 µM,1.41 µM,0.296,0.803,0.339 µM,1.2 µM,0.572 µM,3.45,0.341 µM,1.44,1.54,10 µM,0.6,8.9,0.971,3.43,0.718,2.3 µM,0.333 µM,1.68
O=C(Cn1ccnc1[N+](=O)[O-])NCCO,,> 100 µM,,> 100,,> 100 µM,,> 100,,> 100,,> 100 µM,,> 100,,> 100,,> 100 µM,,> 100
C#Cc1cccc(NC(=O)Nc2ccccc2NC(=O)CCl)c1,15.1 µM,33.8 µM,29,> 82.5,28.9 µM,> 82.5 µM,25.9 µM,> 82.5,14.2 µM,26.5,16,34.1 µM,16.5,33.9,16,41,31.1,> 82.5 µM,11.1 µM,21.6
CC/C=C/[C@@H]1C=C[C@@H]2CCC[C@H]2[C@@H]1CC[C@H](O)[C@H](C)N,3.73 µM,20.5 µM,1.36,2.64,1.93 µM,3.98 µM,1.47 µM,2.8,1.7 µM,3.07,11.9,27.6 µM,1.84,3.46,1.83,4.88,1.52,3.3 µM,1.77 µM,4.91
COc1ccc(C(=O)c2cc3c(N)c(C(=O)Nc4cccc(Cl)c4)sc3nc2C)cc1,1.28 µM,> 33.3 µM,1.67,> 33.3,1.26 µM,> 33.3 µM,2.24 µM,> 33.3,1.25 µM,> 33.3,16,> 33.3 µM,1.12,> 33.3,9.48,> 33.3,2.52,> 33.3 µM,2.5 µM,> 33.3
CCc1nc(N)nc(N)c1-c1ccc(Cl)cc1,6.34 µM,> 100 µM,,> 100,13.2 µM,> 100 µM,26.7 µM,> 100,16.1 µM,> 100,47.9,> 100 µM,1.73,> 100,60,> 100,45.5,> 100 µM,14.5 µM,> 100
Cc1cc(O)c2c(c1)C[C@@H](O)C1=C2C(=O)c2c(O)ccc(OC3CC(O)C(OC4CC(OC5CCC(OC6CC(O)C(OC7CC(OC8CCC(O)C(C)O8)C(O)C(C)O7)C(C)O6)C(C)O5)C(O)C(C)O4)C(C)O3)c2C1=O (stereo partly drawn),0.398 µM and 0.439 µM,0.274 µM and 1.18 µM and 1.45 µM,0.539,,2.03 µM and 1.37 µM,0.492 µM and 3.45 µM and 2.69 µM,1.97 µM and 2.76 µM,,1.78 µM and 1.11 µM,,1.48,0.461 µM and 3.07 µM,,0.485,0.326,,0.626,0.352 µM and 2.54 µM,1.39 µM and 1.3 µM,
COc1ccc(C(=O)CC2(O)C(=O)Nc3c(Cl)ccc(Cl)c32)cc1 (stereo not drawn),1.75 µM,> 100 µM,0.954,5.3,3.44 µM,> 37.6 µM,3.42 µM,> 100,0.732 µM,> 59.2,30.6,> 100 µM,0.97,40.4,11.9,> 100,9.9,> 100 µM,6.65 µM,> 100
C=C1C(=O)OC(CCCCCCCC)C1C(=O)O (stereo not drawn),16 µM,34.9 µM,18.2,33.7,15.2 µM,30.1 µM,20.5 µM,39.1,18.3 µM,34.4,19.8,48.1 µM,18.6,37.5,15.3,31.8,12.3,30.6 µM,11.7 µM,25.6
